# ChEMBL document CHEMBL4482311, “Modulators of Prostate-Specific G-Protein Receptor (PSGR/OR51E2) and Methods of Using Same” (2018)
# pEC50: −log10 of the molar value. Calls of active or inactive are those of the source. The calls are words filed in the database; no cut-off is given here.
# How the values were obtained:
# Olfactory receptor 51E2 = target: T1, Olfactory receptor 51E2 (Homo sapiens, UniProt Q9H255); experiment: Agonist activity at PSGR/OR51E2 (unknown origin) expressed in human Hana3A cells co-transfected with CRE-Luc by luciferase reporter gene assay; format: functional, cell-based
# T1 sequence (Q9H255 whole entry): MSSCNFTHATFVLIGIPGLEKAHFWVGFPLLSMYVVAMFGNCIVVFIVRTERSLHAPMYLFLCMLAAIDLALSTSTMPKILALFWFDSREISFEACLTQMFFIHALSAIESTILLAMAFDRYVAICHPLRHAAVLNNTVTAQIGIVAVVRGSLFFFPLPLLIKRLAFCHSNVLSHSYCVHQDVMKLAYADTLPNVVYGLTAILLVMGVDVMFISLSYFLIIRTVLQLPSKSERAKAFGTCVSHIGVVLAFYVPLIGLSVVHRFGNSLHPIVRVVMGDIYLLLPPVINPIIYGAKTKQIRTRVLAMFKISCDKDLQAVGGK
# [1] = target: T2, Olfactory receptor 51E2 (Homo sapiens) (UniProt Q9H255); experiment: Agonist activity at PSGR/OR51E2 (unknown origin) expressed in human Hana3A cells co-transfected with CRE-Luc by luciferase reporter gene assay relative to control 1 mM propionic acid; format: functional, cell-based
# T2 sequence (whole entry): T1 sequence (Q9H255 whole entry)
# [2] = target: T2, Olfactory receptor 51E2 (Homo sapiens); experiment: Agonist activity at PSGR/OR51E2 in human LNCaP cells assessed as induction of neuroendocrine trans-differentiation related gene expression by measuring increase in OR51E2 mRNA expression incubated for 12 days by RT-PCR analysis; format: cell-based
# [3] = target: T2, Olfactory receptor 51E2 (Homo sapiens); experiment: Agonist activity at PSGR/OR51E2 in human LNCaP cells assessed as induction of neuroendocrine trans-differentiation related gene expression by measuring increase in NSE mRNA expression incubated for 12 days by RT-PCR analysis; format: cell-based
# [4] = target: T2, Olfactory receptor 51E2 (Homo sapiens); experiment: Agonist activity at PSGR/OR51E2 in human LNCaP cells assessed as induction of neuroendocrine trans-differentiation related gene expression by measuring increase in AMACR mRNA expression incubated for 12 days by RT-PCR analysis; format: cell-based
# [5] = target: T2, Olfactory receptor 51E2 (Homo sapiens); experiment: Agonist activity at PSGR/OR51E2 in human LNCaP cells assessed as induction of change in extracellular metabolites level by measuring asparagine level at 100 nM incubated for 72 hrs by GC/MS analysis; format: cell-based
# [6] = target: T2, Olfactory receptor 51E2 (Homo sapiens); experiment: Agonist activity at PSGR/OR51E2 in human LNCaP cells assessed as induction of change in extracellular metabolites level by measuring glutaric acid level at 100 nM incubated for 72 hrs by GC/MS analysis; format: cell-based
# [7] = target: T2, Olfactory receptor 51E2 (Homo sapiens); experiment: Agonist activity at PSGR/OR51E2 in human LNCaP cells assessed as induction of change in extracellular metabolites level by measuring guanine level at 100 nM incubated for 72 hrs by GC/MS analysis; format: cell-based
# [8] = target: T2, Olfactory receptor 51E2 (Homo sapiens); experiment: Agonist activity at PSGR/OR51E2 in human LNCaP cells assessed as induction of change in extracellular metabolites level by measuring cysteine level at 100 nM incubated for 72 hrs by GC/MS analysis; format: cell-based
# [9] = target: T2, Olfactory receptor 51E2 (Homo sapiens); experiment: Agonist activity at PSGR/OR51E2 in human LNCaP cells assessed as induction of change in extracellular metabolites level by measuring alpha-ketoglutaric acid level at 100 nM incubated for 72 hrs by GC/MS analysis; format: cell-based
# [10] = target: T2, Olfactory receptor 51E2 (Homo sapiens); experiment: Agonist activity at PSGR/OR51E2 in human LNCaP cells assessed as induction of change in extracellular metabolites level by measuring 2-ketoleucine level at 100 nM incubated for 72 hrs by GC/MS analysis; format: cell-based
# [11] = target: T2, Olfactory receptor 51E2 (Homo sapiens); experiment: Agonist activity at PSGR/OR51E2 in human LNCaP cells assessed as induction of change in extracellular metabolites level by measuring hydroquinone level at 100 nM incubated for 72 hrs by GC/MS analysis; format: cell-based
# [12] = target: T2, Olfactory receptor 51E2 (Homo sapiens); experiment: Agonist activity at PSGR/OR51E2 in human LNCaP cells assessed as induction of change in extracellular metabolites level by measuring succinic acid level at 100 nM incubated for 72 hrs by GC/MS analysis; format: cell-based
# [13] = target: T2, Olfactory receptor 51E2 (Homo sapiens); experiment: Agonist activity at PSGR/OR51E2 in human LNCaP cells assessed as induction of change in extracellular metabolites level by measuring glyceric acid level at 100 nM incubated for 72 hrs by GC/MS analysis; format: cell-based
# [14] = target: T2, Olfactory receptor 51E2 (Homo sapiens); experiment: Agonist activity at PSGR/OR51E2 in human LNCaP cells assessed as induction of change in extracellular metabolites level by measuring n-acetylaspartic acid level at 100 nM incubated for 72 hrs by GC/MS analysis; format: cell-based
# [15] = target: T2, Olfactory receptor 51E2 (Homo sapiens); experiment: Agonist activity at PSGR/OR51E2 in human LNCaP cells assessed as induction of change in extracellular metabolites level by measuring hydroxyprolines level at 100 nM incubated for 72 hrs by GC/MS analysis; format: cell-based
# [16] = target: T2, Olfactory receptor 51E2 (Homo sapiens); experiment: Agonist activity at PSGR/OR51E2 in human LNCaP cells assessed as induction of change in extracellular metabolites level by measuring 2-deoxyglucose level at 100 nM incubated for 72 hrs by GC/MS analysis; format: cell-based
# [17] = target: T2, Olfactory receptor 51E2 (Homo sapiens); experiment: Agonist activity at PSGR/OR51E2 in human LNCaP cells assessed as induction of change in extracellular metabolites level by measuring beta-alanine level at 100 nM incubated for 72 hrs by GC/MS analysis; format: cell-based
# [18] = target: T2, Olfactory receptor 51E2 (Homo sapiens); experiment: Agonist activity at PSGR/OR51E2 in human LNCaP cells assessed as induction of change in extracellular metabolites level by measuring benzoic-acid level at 100 nM incubated for 72 hrs by GC/MS analysis; format: cell-based
# [19] = target: T2, Olfactory receptor 51E2 (Homo sapiens); experiment: Agonist activity at PSGR/OR51E2 in human LNCaP cells assessed as induction of change in extracellular metabolites level by measuring urea level at 100 nM incubated for 72 hrs by GC/MS analysis; format: cell-based
# [20] = target: T2, Olfactory receptor 51E2 (Homo sapiens); experiment: Agonist activity at PSGR/OR51E2 in human LNCaP cells assessed as induction of change in intracellular metabolites level by measuring tyramine level at 100 nM incubated for 72 hrs by GC/MS analysis; format: cell-based
# [21] = target: T2, Olfactory receptor 51E2 (Homo sapiens); experiment: Agonist activity at PSGR/OR51E2 in human LNCaP cells assessed as induction of change in intracellular metabolites level by measuring adenosine/inosine level at 100 nM incubated for 72 hrs by GC/MS analysis; format: cell-based
# [22] = target: T2, Olfactory receptor 51E2 (Homo sapiens); experiment: Agonist activity at PSGR/OR51E2 in human LNCaP cells assessed as induction of change in intracellular metabolites level by measuring guanine level at 100 nM incubated for 72 hrs by GC/MS analysis; format: cell-based
# [23] = target: T2, Olfactory receptor 51E2 (Homo sapiens); experiment: Agonist activity at PSGR/OR51E2 in human LNCaP cells assessed as induction of change in intracellular metabolites level by measuring alanine level at 100 nM incubated for 72 hrs by GC/MS analysis; format: cell-based
# [24] = target: T2, Olfactory receptor 51E2 (Homo sapiens); experiment: Agonist activity at PSGR/OR51E2 in human LNCaP cells assessed as induction of change in intracellular metabolites level by measuring pantothenic acid level at 100 nM incubated for 72 hrs by GC/MS analysis; format: cell-based
# [25] = target: T2, Olfactory receptor 51E2 (Homo sapiens); experiment: Agonist activity at PSGR/OR51E2 in human LNCaP cells assessed as induction of change in intracellular metabolites level by measuring fumaric acid level at 100 nM incubated for 72 hrs by GC/MS analysis; format: cell-based
# [26] = target: T2, Olfactory receptor 51E2 (Homo sapiens); experiment: Agonist activity at PSGR/OR51E2 in human LNCaP cells assessed as induction of change in intracellular metabolites level by measuring malic acid level at 100 nM incubated for 72 hrs by GC/MS analysis; format: cell-based
# [27] = target: T2, Olfactory receptor 51E2 (Homo sapiens); experiment: Agonist activity at PSGR/OR51E2 in human LNCaP cells assessed as induction of change in intracellular metabolites level by measuring serine level at 100 nM incubated for 72 hrs by GC/MS analysis; format: cell-based
# [28] = target: T2, Olfactory receptor 51E2 (Homo sapiens); experiment: Agonist activity at PSGR/OR51E2 in human LNCaP cells assessed as induction of change in intracellular metabolites level by measuring threonine level at 100 nM incubated for 72 hrs by GC/MS analysis; format: cell-based
# [29] = target: T2, Olfactory receptor 51E2 (Homo sapiens); experiment: Agonist activity at PSGR/OR51E2 in human LNCaP cells assessed as induction of change in intracellular metabolites level by measuring fructose-6-phosphate level at 100 nM incubated for 72 hrs by GC/MS analysis; format: cell-based
# [30] = target: T2, Olfactory receptor 51E2 (Homo sapiens); experiment: Agonist activity at PSGR/OR51E2 in human LNCaP cells assessed as induction of change in intracellular metabolites level by measuring beta-alanine level at 100 nM incubated for 72 hrs by GC/MS analysis; format: cell-based
# [31] = target: T2, Olfactory receptor 51E2 (Homo sapiens); experiment: Agonist activity at PSGR/OR51E2 in human LNCaP cells assessed as induction of change in intracellular metabolites level by measuring lactic acid level at 100 nM incubated for 72 hrs by GC/MS analysis; format: cell-based
# [32] = target: T2, Olfactory receptor 51E2 (Homo sapiens); experiment: Agonist activity at PSGR/OR51E2 in human LNCaP cells assessed as induction of change in intracellular metabolites level by measuring glucose-6-phosphate level at 100 nM incubated for 72 hrs by GC/MS analysis; format: cell-based
# [33] = target: T2, Olfactory receptor 51E2 (Homo sapiens); experiment: Agonist activity at PSGR/OR51E2 in human LNCaP cells assessed as induction of change in intracellular metabolites level by measuring tyrosine level at 100 nM incubated for 72 hrs by GC/MS analysis; format: cell-based
# [34] = target: T2, Olfactory receptor 51E2 (Homo sapiens); experiment: Agonist activity at PSGR/OR51E2 in human LNCaP cells assessed as induction of change in intracellular metabolites level by measuring urea level at 100 nM incubated for 72 hrs by GC/MS analysis; format: cell-based
molecule,measurement,setting,value
Nc1nc2[nH]c(O)nc2c(=O)[nH]1,pEC50,Olfactory receptor 51E2,12.36
Oc1ccc(-c2[o+]c3cc(O)cc(O)c3cc2O)cc1,Ratio,[1],0.621
C[C@]12CC[C@H]3[C@@H](CCC4=CC(=O)CC[C@@]43CO)[C@@H]1CCC2=O,Activity,[2],Active
same,Activity,[3],Active
same,Activity,[4],Active
same,Activity,[5],Active
same,Activity,[6],Active
same,Activity,[7],Active
same,Activity,[8],Active
same,Activity,[9],Active
same,Activity,[10],Active
same,Activity,[11],Active
same,Activity,[12],Active
same,Activity,[13],Active
same,Activity,[14],Active
same,Activity,[15],Active
same,Activity,[16],Active
same,Activity,[17],Active
same,Activity,[18],Active
same,Activity,[19],Active
same,Activity,[20],Active
same,Activity,[21],Active
same,Activity,[22],Active
same,Activity,[23],Active
same,Activity,[24],Active
same,Activity,[25],Active
same,Activity,[26],Active
same,Activity,[27],Active
same,Activity,[28],Active
same,Activity,[29],Active
same,Activity,[30],Active
same,Activity,[31],Active
same,Activity,[32],Active
same,Activity,[33],Active
same,Activity,[34],Active
COc1cc(CCC(=O)CC(=O)CCc2ccc(O)c(OC)c2)ccc1O,Ratio,[1],0.284
O=C1CN=CN1,Ratio,[1],0.678
H-RPPGFSPFR-OH,Ratio,[1],0.762
H-RPPGFSPFR-OH [BRADYKININ],pEC50,Olfactory receptor 51E2,8.89
